Experimental data reported in patent publication US20040023907A1, “Infection model” (priority 2000, published 2004).
“Also recorded” adds a separate entry of the source.

Key:
[1] = tested on: candida albicans (virulent strain Sc5314, avirulent strain Can34); test: Influence of antimycotics on adhesion of candida albicans to in vitro skin and intestinal test systems (co-cultivation, colony count); assay type: cell-based; settings: for influence on growth rates of the pathogen: co-cultivation with in vitro skin and intestinal test systems in presence of antimycotic; for influence on the adhesion of the pathogen: human in vitro skin and intestinal test systems, submerse culture, antimycotic 0.1, 0.5, 1.0, 2.0 μg/μl, colony count vs samples without antimycotic
Source text: In an especially preferred embodiment, the present invention relates to the co-cultivation of the human-pathological microorganism candida albicans with the human in vitro skin test system or the human in vitro intestinal test system in order to investigate the first stage of the infection process, i.e. the adhesion of the pathogen to the skin or intestinal cells. The adhesion of the pathogen is investigated using the virulent candida strain Sc5314 and the avirulent candida strain Can34 that have already been studied in a mouse macrophage model (Longitudinal et al., Cell, 90 (1997), 939-949). The in vitro skin test system or the in vitro intestinal test system is in each case inoculated in submerse culture with about 10^3 pathogenic organisms and cultivated with shaking. At defined times, for example every 30 minutes (up to a maximum of 4 hours), aliquot amounts are removed and plated out into Petri dishes with appropriate nutrient media, for example YPD full medium (Difco). After an appropriate incubation time, the number of colonies in the Petri dishes is determined. The adhesion of the pathogens on the in vitro organ test systems can be determined based on the comparison between the determined colony count and the originally inoculated number of pathogens.
In a preferred embodiment, the method for investigating the adhesion of candida on the in vitro intestinal test system according to the invention and on the in vitro skin test system according to the invention is modified in such a way that the co-cultivation preparation contains an antimycotic, in particular amphothericin B or fluconazole.
In order to determine the adhesion of the pathogen on cells, 12 each inserts of the human in vitro skin test system held in submerse culture or 12 each inserts of the in vitro intestinal test system held in submerse culture were infected each with 10^3 pathogenic organisms of the virulent candida strain Sc5314 or of the avirulent candida strain Can34 (Longitudinal et al., Cell 90 (1997), […]). The inserts were then incubated with shaking at 37° C. for 30, 60, 90, 120, 150, or 180 min.
At the specified times, the supernatant was removed and plated out in Petri dishes with YPD nutrient medium. After an incubation period of 2 days, the colonies in the Petri dishes were counted. Based on the comparison between the determined colony count and originally inoculated number of pathogens, it was determined that approximately 95% of the virulent strain and 10% of the avirulent strain adhered to the in vitro skin model after 2 hours.
In order to determine the influence of antimycotics on the adhesion of candida albicans on skin and intestinal cells, 12 inserts of the in vitro skin test system held in submerse culture and 12 inserts of the in vitro intestinal test system each were infected with 10^3 pathogenic organisms of the virulent candida strain Sc5314 or the avirulent candida strain Can34. Amphotericin B was added to 5 inserts in a concentration of 0.1, 0.5, 1.0, and 2.0 μg/μl, and fluconazole was added to 5 inserts in a concentration of 0.1, 0.5, 1.0, and 2.0 μg/μl. The inserts were then incubated with shaking at 37° C. for up to 3 days.
After 16, 24, 72, 86, and 98 hours, aliquot amounts were removed and plated out in Petri dishes with YPD nutrient media. After an incubation period of 2 days, the colonies in the Petri dishes were counted.

[2] = tested on: candida albicans (virulent strain Sc5314, avirulent strain Can34); test: Influence of antimycotics on penetration/invasion of candida albicans into in vitro skin and intestinal test systems (histology, PAS staining); assay type: cell-based; settings: human in vitro skin and intestinal test systems, antimycotic 0.1, 0.5, 1.0, 2.0 μg/μl, histology after approximately 18 to 24 hours
Source text: In another particularly preferred embodiment, the present invention relates to the co-cultivation of the human-pathogenic microorganism candida albicans with the human in vitro skin test system prepared according to the invention or with the human in vitro intestinal test prepared according to the invention in order to investigate another stage of the infection process, i.e. the penetration/invasion of the pathogen into cells. For this, the organoid tissue test systems are co-cultivated using the airlift process with the previously described avirulent and virulent pathogen strains. The pathogen is preferably fixed with a cell count of 10^3/ml in 1% agar, and agar pieces with a diameter of 4 mm are placed onto the organoid tissue test systems for up to 98 hours. The penetration of the pathogen into the organoid structures was studied after 16 hours, 24 hours, 72 hours, 86 hours, and 98 hours using histological methods on thin sections, employing the PAS staining method (McManaus, Romeis, 17th ed., page 393). Using the histological sections, the invasion process of the virulent candida strain into the deeper layers of the connective-tissue-like matrix can be documented.
In another preferred embodiment, the method for investigating the penetration/invasion of candida with the in vitro intestinal test system and the in vitro skin test system was modified in such a way that the co-cultivation preparation contained amphothericin B or fluconazole.
In order to determine the penetration of the pathogen, 12 inserts of the in vitro skin system held in airlift culture and 12 inserts of the in vitro intestinal system held in airlift culture each were infected with 10^3 pathogenic organisms of the virulent candida strain Sc5314 or the avirulent candida strain Can34. The inserts then were incubated up to 3 days at 37° C.
The penetration of the pathogen into the organoid structures was investigated after about 18 to 24 hours using histological methods on thin sections, employing the PAS staining method both for the in vitro skin system as well as for the in vitro intestinal system. […]

Compound	influence on growth rates of the pathogen [1]	influence on the adhesion of the pathogen [1]	influence on the adhesion of the pathogen ([1]; listed as amphothericin B)	invasion (penetration) of the virulent candida strain into the organoid structures [2]	invasion (penetration) of the virulent candida strain into the organoid structures ([2]; listed as amphothericin B)
C[C@@H]1[C@H](O)[C@@H](C)/C=C/C=C/C=C/C=C/C=C/C=C/C=C/[C@H](O[C@@H]2O[C@H](C)[C@@H](O)[C@H](N)[C@@H]2O)C[C@@H]2O[C@](O)(C[C@@H](O)C[C@@H](O)[C@H](O)CC[C@@H](O)C[C@@H](O)CC(=O)O[C@H]1C)C[C@H](O)[C@H]2C(=O)O [amphotericin B]	influenced its growth rates	adhesion of the virulent candida strain could only be prevented by adding amphotericin B and fluconazole and by an inhibition of growth	no influence on the adhesion of the pathogen	apparently prevents the invasion of the virulent candida strain by inhibiting its growth	could only be prevented with a complete inhibition of growth
OC(Cn1cncn1)(Cn1cncn1)c1ccc(F)cc1F [fluconazole]	influenced its growth rates	no influence on the adhesion of the pathogen; also recorded: adhesion of the virulent candida strain could only be prevented by adding amphotericin B and fluconazole and by an inhibition of growth	–	could only be prevented with a complete inhibition of growth; also recorded: apparently prevents the invasion of the virulent candida strain by inhibiting its growth	–
